Reference: patent US4985416A, “Platinum complexes of azodiazonium dyes as anti-tumor agents” (priority 1989, dated 1991)
Where two headings read alike, the source gives them in different places.

Tests used:
Lewis Lung carcinoma = experiment: Anti-metastatic activity: lung metastases from Lewis Lung carcinoma; format: in vivo, mice; conditions: day 7, lungs day 20, control 14
Description: (§1) Anti-tumor activity of the complex prepared as described above was determined in vivo in mice by comparative tests against Fast Black dye alone and against Cis-diamminedichloroplatinum (CDDP) using the following procedure Two different solid tumor cell lines were employed, Lewis Lung and FSaII, 2×10^6 tumor cells being implanted i.m. into the legs of male C57BL/6J and C3H/He mice 8 to 10 weeks of age, respectively. The drugs were administered i.p. on day 7 after tumor implantation (when tumors were about 100 mm^3 in volume), in solution (0.5%) in 0.9% phosphate-buffered saline as carrier. Tumor growth delay is reported in Table I below as the difference in number of days for the treated tumors to reach 500 mm^3 in volume and the number of days required for untreated control tumors to reach the same volume (n=14 in each group). Tumor volume was calculated as a hemiellipsoid. In the control animals, tumors reached the specified volume in 12-14 days.
Anti-metastatic activity was determined by implanting Lewis Lung carcinoma cells in the legs of mice as described above, administering drugs in the doses indicated in Table II below, i.p. on day 7 after implantation and removing the lungs on day 20 followed by counting metastases. Control mice received no drug (n=14 in each group).

FSaII fibrosarcoma cells [1] = experiment: Enhancement of killing effect of heat treatment (hyperthermia) in vivo: growth delay; set-up: species or system mice
Description: FSaII fibrosarcoma cells (2×10^6 FSaII cells) were implanted in the legs of mice: the drug was administered i.p. when the tumor had grown to approximately 50 mm^3 in volume, using 0.9% phosphate buffered saline as carrier, as described above in the doses shown in Table 3 below. Fifteen minutes later radiation was delivered locally to the tumor bearing limb as a single dose of 10, 20, or 30 gray as indicated in the table. No anesthetic was used. The growth of each tumor was measured thrice weekly until it reached a volume of 500 mm^3. Each treatment group had 7 animals and the procedure was repeated 3 times. Tumor volume was calculated as a hemiellipsoid, and in the untreated control animals, tumors reached the specified volume in 14.0 days. The delay is reported in terms of the mean number of additional days beyond the control required for the tumors in each group to reach the specified volume. The results were as follows:
The complex was also found to be effective in enhancing the killing effect of heat treatment (hyperthermia) in vivo. The procedure described in the preceding paragraph was carried out except that there was substituted for the single radiation dose a heat treatment by immersion of the tumor-bearing limb in a water bath at 44° C. for 30 minutes to raise the tumor temperature to 43° C. The means number of days delay (n=14) was as follows: […]

Lewis Lung = experiment: Tumor growth delay in vivo, Lewis Lung solid tumor; set-up: species or system mice (C57BL/6J); conditions: day 7, to reach 500 mm^3
Description: as §1

FSaII = experiment: Tumor growth delay in vivo, FSaII solid tumor; set-up: species or system mice (C3H/He); conditions: day 7, to reach 500 mm^3
Description: as §1

FSaII fibrosarcoma cells [2] = format: in vivo, mice; conditions: 300 mg/kg i.p.
Description: Fifteen minutes later radiation was delivered locally to the tumor bearing limb as a single dose of 10, 20, or 30 gray as indicated in the table. No anesthetic was used. The growth of each tumor was measured thrice weekly until it reached a volume of 500 mm^3. […] The delay is reported in terms of the mean number of additional days beyond the control required for the tumors in each group to reach the specified volume.

carcinoma cells = conditions: in words; Bernal et al.; cited from earlier work
EMT6 cells = experiment: Entry of platinum into EMT6 cells; format: cell-based; conditions: in words

SMILES: N.N.[Cl][Pt][Cl] [CDDP, Cis-diamminedichloroplatinum (II)]
- Mean No. of Metastases per Animal (Lewis Lung carcinoma; 10 mg/kg i.p.): 10.7 Metastases per Animal
- Mean No. Days Delay (FSaII fibrosarcoma cells [1]; 5 mg/kg, heat 30 min at 43° C., heat alone 1.4): 5.9 days
- Mean No. Days Delay (FSaII fibrosarcoma cells [1]; 5 mg/kg, no heat): 4.4 days
- Mean No. Days Delay (Lewis Lung) (Lewis Lung; 5 mg/kg i.p.): < 1 days
- Mean No. Days Delay (Lewis Lung) (Lewis Lung; 10 mg/kg i.p.): < 1 days
- Mean No. Days Delay (FSaII) (FSaII; 5 mg/kg i.p.): 4.4 days
- Mean No. Days Delay (FSaII) (FSaII; 10 mg/kg i.p.): 8.0 days

SMILES: COc1cc([N+]#N)c(OC)cc1N=Nc1ccc([N+](=O)[O-])cc1 [Fast Black]
- Mean No. of Metastases per Animal (Lewis Lung carcinoma; 50 mg/kg i.p.): 13.3 Metastases per Animal
- Mean No. of Metastases per Animal (Lewis Lung carcinoma; 100 mg/kg i.p.): 12.3 Metastases per Animal
- Mean No. of Metastases per Animal (Lewis Lung carcinoma; 250 mg/kg i.p.): 11.0 Metastases per Animal
- Mean No. Days Delay (FSaII fibrosarcoma cells [2]; 0 Gray): 3.0 days
- Mean No. Days Delay (FSaII fibrosarcoma cells [2]; 10 Gray 15 min later, radiation alone 1.8): 7.0 days
- Mean No. Days Delay (FSaII fibrosarcoma cells [2]; 20 Gray 15 min later, radiation alone 6.3): 12.6 days
- Mean No. Days Delay (FSaII fibrosarcoma cells [2]; 30 Gray 15 min later, radiation alone 8.8): 16.2 days
- Mean No. Days Delay (FSaII fibrosarcoma cells [1]; 300 mg/kg, heat 30 min at 43° C., heat alone 1.4): 4.4 days
- Mean No. Days Delay (FSaII fibrosarcoma cells [1]; 300 mg/kg, no heat): 2.7 days
- Mean No. Days Delay (Lewis Lung) (Lewis Lung; 250 mg/kg i.p.): 2.0 days
- Mean No. Days Delay (FSaII) (FSaII; 250 mg/kg i.p.): 2.7 days

SMILES: COC(=O)c1ccccc1-c1c2ccc(=N)cc-2oc2cc(N)ccc12 [Rhodamine 123]
- selective toxicity toward carcinoma cells (carcinoma cells): selectively toxic toward carcinoma cells

SMILES: [Cl][Pt-2]([Cl])([Cl])[Cl].[K+].[K+] [potassium tetracloroplatinate, potassium tetrachloroplatinate]
- entry of platinum into the cells (EMT6 cells): only very poor entry of platinum into the cells
